These results are taken from patent US4556676A, “Antidepressant derivatives of trans-4-phenyl-1,2,3,4-tetrahydro-1-naphthalenamine” (priority 1980, dated 1985).

Counter-ions that a name gives are not always drawn. Like-named read-outs stand apart in the source and are kept apart here.

One assay has as its system mice. Briefly: Reduction of behavioral despair in vivo (modified Porsolt mouse swim test). On the set-up: species or system Swiss-Webster CD male mice. As to conditions: sc, read-out: MPE50.
Assay [1] deals with 5-hydroxytryptophan-induced tremors. Briefly: Potentiation of 5-hydroxytryptophan-induced behavioral symptoms (tremors) in vivo. On the set-up: species or system Swiss-Webster CD male mice. As to conditions: for ED50: Mus musculus; for ED50 (tremors): then 100 mg./kg. i.p. 5HTP one hour later, Hydrochloride.
Experimental: The mice were rated for the presence of this symptom by a "blinded observer" at 10-20 min. after 5HTP treatment.
Assay [2] has as its system synaptosomal uptake of dopamine (DA). Nature of the assay: Blockade of synaptosomal uptake of dopamine (DA) in vitro, rat corpus striatum. It is filed as biochemical, Sprague-Dawley CD male rats. As to conditions: rat corpus striatum synaptosomes. The procedure:
(§1) Sprague-Dawley CD male rats weighing 180-220 g. (Charles River Laboratories, Inc.; Wilmington, Mass.) were used in this procedure. A crude synaptosomal fraction of rat corpus striatum (for 5HT and DA uptake) or hypothalmus (for NE uptake) tissue was prepared by homogenizing tissue (25 ml./g. wet) in ice-cold 0.32M sucrose containing 1 mg./ml. glucose, 0.0001M EDTA and tris(hydroxymethyl)aminomethane to pH 7.4. The homogenate was centrifuged at 1000×g for 10 min. at 0°-4° C., the pellet discarded and the supernatant centrifuged at 17,000×g for 20 min. at 0°-4° C. The resulting pellet was resuspended in the ice-cold 0.32M sucrose pH 7.4 solution at 10 ml./g. original tissue (wet) for corpus striatum and 5 ml./g. original tissue (wet) for hypothalmus. […] Duplicate 0.1 ml. aliquots of the tissue suspension were incubated for 10 min. at 37° C. with 0.02 ml. of a solution containing a known quantity of the named test compound and 1.0 ml. of the incubation buffer containing additionally 1 mg./ml. glucose and 0.0001 mM labeled monoamine (^14 C-5HT, ^14 C-DA or ^3 H-NE). After incubation, the mixtures were filtered through 0.45 micron Millipore filters and the filters washed with the incubation buffer. […] Uptake was calculated as picomoles 5HT, DA or NE per mg. protein (protein was determined by measurement with Folin phenol reagent).

The subject of assay [3] is synaptosomal uptake of serotonin (5HT). Briefly: Blockade of synaptosomal uptake of serotonin (5HT) in vitro, rat corpus striatum. It is filed as biochemical, Sprague-Dawley CD male rats. The following applies: rat corpus striatum synaptosomes, 5HT uptake. As to the method: as §1
Assay [4] relates to synaptosomal uptake of norepinephrine (NE). Nature of the assay: Blockade of synaptosomal uptake of norepinephrine (NE) in vitro, rat hypothalmus. Type of assay: biochemical, Sprague-Dawley CD male rats. The following applies: rat hypothalmus synaptosomes. The procedure: as §1
Another assay concerns uptake of serotonin. The following applies: known drugs; cited from earlier work.
The mark [5] stands for this setting: mice, oral, no observed tremors at 32 mg./kg., highest dose tested, read-out: ED50 (tremors), footnoted.
The mark [6] stands for this setting: po, 1 h, read-out: ED50 (tremors), mice, oral, then 100 mg./kg. i.p. 5HTP one hour later.
Setting [7] is: mice, subcutaneous, 1 hour before test.

Experimental for mice: A number of Swiss-Webster CD male mice weighing 25-30 g. (Charles River Laboratories, Inc.; Wilmington, Mass.) were housed under standard laboratory conditions for at least one week prior to experimentation. […] One hour later the mice were placed individually in 1 liter beakers containing 7 cm. of 25° C. water. Beginning at 2 min. after immersion, each mouse was observed every 30 sec. for the presence of immobility, characterized as floating motionless in the water. A total of ten observations were made, each being scored as "0=animal moving, swimming, attempting to escape" or "1=animal immobile". The number of positive observations for each mouse was then totaled and a mean immobility score calculated for the group of ten.

As for `CN[C@@H]1CC[C@@H](c2ccc(Cl)c(Cl)c2)c2ccccc21` (relative stereo) [Example 1, Trans-(1S)(1R)-N-methyl-4-(3,4-diclorophenyl)-1,2,3,4-tetrahydro-1-naphthalenamine Hydrochloride], the ED50 is 1.5 mg/kg in the assay on mice (1 h) and 3.2 to 10 mg/kg in assay [1] (po, 1 h, read-out: ED50 (oral dosage level at which tremors elicited), mice, oral, then 100 mg./kg. i.p. 5HTP one hour later, tremors).

In general, IC50 refers to the concentration that gives 50% inhibition. High values mean weaker potency, low ones greater potency. For the molecule `CN[C@@H]1CC[C@@H](c2ccc(Cl)cc2)c2ccccc21.Cl` (relative stereo) [Example 4, Trans-N-methyl-4-(4-chlorophenyl)-1,2,3,4-tetrahydro-1-naphthalenamine Hydrochloride], the IC50 in assay [2] (Hydrochloride) stood at 110 nM. In addition, the “ED50 (tremors)” value in assay [1] (mice, oral) is given as 10-32 mg./kg. - oral.

Take `CN[C@@H]1CC[C@@H](c2ccc(Cl)cc2)c2ccc(OC)cc21` (relative stereo) [Example 17, Trans-(1S)(1R)-N-methyl-4-(4-chlorophenyl)-7-methoxy-1,2,3,4-tetrahydro-1-naphthalenamine Hydrochloride]: the IC50 came to 150 nM in assay [3], 42 nM in assay [2] and 17 nM in assay [4].

For the molecule `CN[C@@H]1CC[C@@H](c2ccc(Cl)cc2)c2ccccc21.Cl` (relative stereo) [Example 5, Trans-N-methyl-4-(4-chlorophenyl)-1,2,3,4-tetrahydro-1-naphthalenamine Hydrochloride], in assay [1] (setting [5]), the ED50 is more than 32 mg/kg.

As to `CN[C@@H]1CC[C@@H](c2cccc(C(F)(F)F)c2)c2ccccc21` (relative stereo) [Example 9, Trans-(1S)(1R)-N-methyl-4-(3-trifluoromethylphenyl)-1,2,3,4-tetrahydro-1-naphthalenamine Maleate], the ED50 with mice (1 h) is more than 32 mg/kg; in assay [1] (setting [6]), 10 to 32 mg/kg. In addition, the IC50 in assay [2] was 2600 nM; in assay [4] it was 260 nM.

For `CN(C)[C@@H]1CC[C@@H](c2cccc(C(F)(F)F)c2)c2ccccc21` (relative stereo) [Example 18, Trans-(1S)(1R)-N,N-dimethyl-4-(3-trifluoromethylphenyl)-1,2,3,4-tetrahydro-1-naphthalenamine Maleate], the IC50 stood at 220 nM in assay [3], 6100 nM in assay [2] and 1400 nM in assay [4].

Regarding `CN[C@@H]1CC[C@@H](c2cccc(OC)c2)c2ccccc21` (relative stereo) [Example 15], the half-inhibitory concentration (IC50) in assay [3] turned out to be 340 nM; in assay [2], 530 nM; in assay [4], 60 nM.

In assay [2], `CN(C)[C@@H]1CC[C@@H](c2ccc(Cl)c(Cl)c2)c2ccccc21` (relative stereo) [Example 20a] yielded a 50% inhibitory concentration (IC50) of 170 nM.

Take `CN(C)[C@@H]1CC[C@@H](c2ccccc2)c2ccccc21` (relative stereo) [II, Trans-(1S)(1R)-N,N-- dimethyl-4-phenyl-1,2,3,4-tetrahydro-1-naphthalenamine hydrochloride, reference compound]: the 50% inhibitory concentration (IC50) in assay [2] was 840 nM; in assay [4], 140 nM.

For the molecule `CN[C@@H]1CC[C@@H](c2ccc(C(F)(F)F)cc2)c2ccccc21` (relative stereo) [Example 8], the ED50 with mice (setting [7]) was more than 10 mg/kg; in assay [1] (setting [6]), 10 to 32 mg/kg. Moreover, the results for the IC50 in assay [2] and in assay [4] were 4400 nM and 690 nM, respectively.

On to `CN[C@@H]1CC[C@@H](c2ccc(Cl)c(C(F)(F)F)c2)c2ccccc21` (relative stereo) [Example 10], for which the ED50 is less than 32 mg/kg in the assay with mice (setting [7]) and 10 to 32 mg/kg in assay [1] (setting [6]). In assay [2], this molecule registered an IC50 of 7300 nM.

Turning to `CN(C)[C@@H]1CC[C@@H](c2ccc(C(F)(F)F)cc2)c2ccccc21` (relative stereo) [Example 19], the figures for the IC50 in assay [2] and in assay [4] were 9800 nM and 4700 nM, respectively. For the same molecule, the ED50 in assay [1] (setting [6]) was in the range of 3.2 to 10 mg/kg.

As to `CN[C@@H]1CC[C@@H](c2ccc(F)cc2)c2ccccc21` (relative stereo) [Example 7, Trans-(1S)(1R)-N-methyl-4-(4-fluorophenyl)-1,2,3,4-tetrahydro-1-naphthalenamine Hydrochloride], the ED50 in the assay with mice (1 h) was 2.3 mg/kg; in assay [1] (po, read-out: ED50 (tremors), footnoted, mice, oral, no observed tremors at 32 mg./kg., highest dose tested), more than 32 mg/kg. Also, the 50% inhibitory concentration (IC50) came out at 220 nM in assay [2] and 27 nM in assay [4].

Turning to `CN[C@@H]1CC[C@@H](c2ccc(Cl)cc2)c2ccccc21.Cl` (relative stereo) [Example 6, Trans-N-methyl-4-(4-chlorophenyl)-1,2,3,4-tetrahydro-1-naphthalenamine Hydrochloride], the ED50 with mice (setting [7]) turned out to be 0.88 mg/kg. In assay [1] (mice, oral), the “ED50 (tremors)” value was 3.2-10 mg./kg. - oral.

Turning to `CN[C@@H]1CC[C@@H](c2ccccc2)c2ccccc21` (relative stereo) [I, Trans-(1S)(1R)-N-- methyl-4-phenyl-1,2,3,4-tetrahydro-1-naphthalenamine hydrochloride, reference compound], the half-maximal inhibitory concentration (IC50) in assay [3] was determined as 1500 nM; in assay [2] it was 210 nM; in assay [4], 37 nM.

On to `CN[C@@H]1CC[C@@H](c2ccc(Cl)cc2Cl)c2ccccc21` (relative stereo) [Example 16, Trans-(1S)(1R)-N-methyl-4-(2,4-dichlorophenyl)-1,2,3,4-tetrahydro-1-naphthalenamine Hydrochloride], for which the IC50 in assay [2] is 6100 nM.

For `CN[C@@H]1CC[C@@H](c2ccc(Br)cc2)c2ccccc21` (relative stereo) [Example 12, Trans-(1S)(1R)-N-methyl-4-(4-bromophenyl)-1,2,3,4-tetrahydro-1-naphthalenamine Hydrochloride], the IC50 in assay [3] worked out at 90 nM; in assay [2], 80 nM; in assay [4], 29 nM.

For the molecule `CN[C@@H]1CC[C@@H](c2ccc(OC)cc2)c2ccccc21` (relative stereo) [Example 13, Trans-(1S)(1R)-N-methyl-4-(4-methoxyphenyl)-1,2,3,4-tetrahydro-1-naphthalenamine Hydrochloride], the IC50 worked out at 400 nM in assay [2] and 150 nM in assay [4].

Turning to `CN(C)[C@@H]1CC[C@@H](c2ccc(Cl)cc2)c2ccccc21` (relative stereo) [Example 20], the IC50 in assay [2] came to 380 nM; in assay [4], 130 nM.

In the case of `N[C@@H](Cc1c[nH]c2ccc(O)cc12)C(=O)O` [Example 5HTP, 5-hydroxytryptophan, reference compound], the “behavioral effects of 5HTP by itself” value in assay [1] (mice, 100 mg./kg. i.p. 5HTP alone) was “no clear behavioral effects”.

For the molecule `COCCCC/C(=N\OCCN)c1ccc(C(F)(F)F)cc1` [fluvoxamine], in the assay on uptake of serotonin, the “selective block of uptake of serotonin (compared to norepinephrine blockade)” value is “selectively block the uptake of serotonin”.

Take `CN[C@@H]1CC[C@@H](c2ccccc2OC)c2ccccc21` (relative stereo) [Example 14]: the ED50 (in the assay on mice (setting [7]); in assay [1] (setting [5])) was more than 32 mg/kg in each case. Besides, the IC50 in assay [3] came out at 4500 nM; in assay [2], 5700 nM; in assay [4], 480 nM.

On to `CN[C@@H]1CC[C@@H](c2ccc(Cl)cc2)c2ccc(Cl)cc21` (relative stereo) [Example 11, Trans-(1S)(1R)-N-methyl-4-(4-chlorophenyl)-7-chloro-1,2,3,4-tetrahydro-1-naphthalenamine Hydrochloride], for which the ED50 with mice (setting [7]) turned out to be 6.4 mg/kg. Besides, the concentration for half-maximal inhibition (IC50) is 160 nM in assay [3], 45 nM in assay [2] and 28 nM in assay [4].

As for `CN(C)C/C=C(/c1ccc(Br)cc1)c1cccnc1` [zimelidine], in the assay with uptake of serotonin, the “selective block of uptake of serotonin (compared to norepinephrine blockade)” value is listed as “selectively block the uptake of serotonin”.
